In assay [1] the target is T1, human carbonic anhydrase isoenzyme II (hCA II) (Homo sapiens, UniProt P00918).
T1 construct: human carbonic anhydrase isoenzyme II from erythrocytes (Sigma-Aldrich); purchased Sigma-Aldrich; host or cells: human erythrocytes (natural source)
Kind of assay: In vitro inhibition of human carbonic anhydrase isoenzyme II (hCA II), dansylamide fluorescence. As to conditions: hCA II from erythrocytes 10^-7 M, 60 min, single measurements, read-out: hCA II inhibiting effect in vitro, IC50. It is filed as biochemical. Here is the method: 1. In vitro Inhibition of Human Carbonic Anhydrase Isoenzyme II (hCA II)
The test compounds of Formula I in 96 well microplates were diluted with aqua bidest by using an automatic pipettor (CyBiWell®). From the different dilution plates, aliquots of 20 μl were transferred to the 96 well black assay plates with a pipetting station (Tecan Genesis®). In a second step, 148 μl of potassium phosphate buffer (20 mM, pH 7.4) was added, and as a third step, 20 μl of enzyme solution (1 μM human carbonic anhydrase isoenzyme II from erythrocytes (Sigma-Aldrich), dissolved in potassium phosphate buffer) incubated for 60 min at room temperature and the fluorescence signal (Tecan Ultra® fluorescence reader; excitation wavelength: 280 nm; emission wavelength: 465 nm) read at the end of the preincubation period (FLU-1). After the preincubation time, 20 μl of aqueous dansylamide solution (1 mM dansylamide (Sigma-Aldrich), dissolved in hydrochloric acid) were added and the fluorescence signal read every 10 min for a period of 60 min at 37° C. For calculation, the fluorescence data of the time point 60 min (FLU-2) were used. The total volume of assay mixture amounted to 208 μl. The final concentration of carbonic anhydrase II was 10^−7 M/L, of dansylamide 2.25×10^−6 and of compounds from 10^−8 M/L up to 10^−5 M/L. Final concentration of DMSO as compound solvent was […]. Each microplate also contained blanks without compound and enzyme, controls without compound and ethoxzolamide (final concentration 5×10^−8 M/L). All data reflect single measurements. Data were expressed as % inhibition after calculation by the formula: % inhibition=100((1−(FLU−2cpd−FLU−2blank−FLU−1cpd+FLU−1blank)/(FLU−2control−FLU−2blank−FLU−1control−FLU−1blank))
The % inhibition data for each compound and the respective final concentrations were used for IC50 calculations by using the Prism 4 software. Concentration action figures were calculated by applying the Prism algorithm for nonlinear regression (curve-fit): sigmoidal dose response with variable slope and the constraints: top: 100 and bottom 0.

In assay [2] the test system is male C57Bl/6 mice. The experiment in a line: Acute in vivo food intake test in mice. As to conditions: high caloric diet, 100 mg/kg/day oral gavage in two halves. As for the experimental part: 3. Acute in vivo Food Intake Test in Mice
The studies were carried out in individually housed male C57Bl/6 mice (n=8 per group). The mice were kept on an inverted 12/12 h light/dark cycle (lights on 22:00). They were allowed food (high caloric diet) and water ad libitum. Food intake and water consumption was measured daily. The test compound of Formula I was suspended in 1% methylcellulose in water and 2% (v/v) of Poloxamer 188 (Lutrol F68®) and administered by oral gavage at a dose of 100 mg/kg/day.
In the test model described above, the test substances caused a decrease of the animals' 24 h food intake to the percentages of food intake when compared to control as given in table 3 below.

Molecules are shown by their SMILES. Structures can show the parent of a compound that is named as a salt.

On to `NS(=O)(=O)N1CCN(c2ccccc2)CC1` [Example 2, N-Sulfamoyl-N′-phenylpiperazine hydrochloride], for which the IC50 in assay [1] is 5.1 µM. For the same molecule, in assay [2], the “24 h food intake” value is listed as 68 % of control.

As a reminder, the IC50 is the concentration that gives 50% inhibition.

Values taken from patent US20050261292A1, “Pharmaceutical composition containing N-sulfamoyl-N'-arylpiperazines for the treatment or inhibition of obesity and related conditions” (Solvay Pharmaceuticals GmbH, priority 2004, published 2005).
